# Laboratory results reported in article PMC5781198 (Influenza and Other Respiratory Viruses, 2013).
# Entries after “also recorded” stand apart in the source; their conditions may differ.
# Tests used:
# [1] = tested on: A/Alberta/RV1242/2011 NA (H275H/Y, D199D/N); assay type: biochemical, Influenza A(H1N1)pdm09 virus
# [2] = tested on: A/Santiago/14689/2011 NA (N325K); assay type: biochemical, Influenza A(H1N1)pdm09 virus
# [3] = molecular target: B/Dominican Republic/5506/2011 NA (H273Y) (Influenza B virus, UniProt P27907, H272Y); assay type: biochemical, Influenza B virus (Victoria)
# [4] = molecular target: B/Ontario/1256/2011 NA (G140R, N144K) (Influenza B virus, UniProt P27907, G140R/N143K); assay type: biochemical, Influenza B virus (Victoria)
# [5] = molecular target: B/Ontario/006876/2011 NA (H273Y) (Influenza B virus, UniProt P27907, H272Y); assay type: biochemical, Influenza B virus (Yamagata)
# [6] = tested on: A/Vietnam/108/2011 NA (F174V); assay type: biochemical, Influenza A(H1N1)pdm09 virus
# [7] = tested on: A/Santiago/15706/2011 NA (G460S); assay type: biochemical, Influenza A(H1N1)pdm09 virus
# [8] = tested on: A/Dominican Republic/5507/2011 NA (S247N); assay type: biochemical, Influenza A(H1N1)pdm09 virus
# [9] = tested on: A/Puerto Rico/05/2011 NA (D199N); assay type: biochemical, Influenza A(H1N1)pdm09 virus
# [10] = tested on: A/Bolivia/258/2011 NA (D199N); assay type: biochemical, Influenza A(H1N1)pdm09 virus
# [11] = tested on: A/Bolivia/603/2011 NA (D151G); assay type: biochemical, Influenza A(H3N2) virus
# [12] = molecular target: B/Guatemala/16/2011 NA (S244P) (Influenza B virus, UniProt P27907, S243P); assay type: biochemical, Influenza B virus (Victoria)
# [13] = tested on: B/Bangladesh/4013/2011 NA (A136S); assay type: biochemical, Influenza B virus (Victoria)
# [14] = molecular target: B/Bangladesh/8008/2011 NA (I120V) (Influenza B virus, UniProt P27907, I119V); assay type: biochemical, Influenza B virus (Victoria)
# [15] = molecular target: B/Kenya/9528/2011 NA (M403V) (Influenza B virus, UniProt P27907, M402V); assay type: biochemical, Influenza B virus (Victoria)
# [16] = tested on: B/British Columbia/RV1383/2011 NA (T106N); assay type: biochemical, Influenza B virus (Yamagata)
# [17] = tested on: B/Ontario/006876/2011 NA (H273Y); details: cited from earlier work
compound,measurement,setting,value
"CCC(CC)[C@H](NC(C)=O)[C@@H]1[C@H](O)[C@@H](C(=O)O)C[C@H]1N=C(N)N [Peramivir, peramivir]",IC50 relative to isolate A/Puerto Rico/09/2011 (dominant H275Y),[1],approximately threefold less; also recorded: three times less resistant
same,susceptibility in words,[2],mildly reduced sensitivity
same,fold difference in IC50,[3],12·43 (15) fold
same,fold greater IC50 than the mean IC50 for the drug for all B viruses,[3],16 fold
same,fold difference in IC50,[4],210·68 (257) fold
same,fold greater IC50 than the mean IC50 for the drug for all B viruses,[4],277 fold
same,susceptibility in words,[4],significantly reduced susceptibility
same,fold difference in IC50,[5],33·49 (62) fold
same,fold greater IC50 than the mean IC50 for the drug for all B viruses,[5],44 fold
same,fold difference in IC50,[6],0·06 (1) fold
same,fold difference in IC50,[7],0·26 (4) fold
same,fold difference in IC50,[8],0·15 (3) fold
same,fold difference in IC50,[9],0·21 (4) fold
same,fold difference in IC50,[10],0·09 (2) fold
same,fold difference in IC50,[11],0·08 (1) fold
same,fold difference in IC50,[12],0·60 (1) fold
same,susceptibility in words,[12],sensitive
same,fold difference in IC50,[13],4·77 (6) fold
same,fold difference in IC50,[14],4·36 (5) fold
same,fold difference in IC50,[15],3·59 (4) fold
same,fold difference in IC50,[16],0·85 (2) fold
same,susceptibility in words,[17],reduced susceptibility
"CC(=O)N[C@H]1[C@H]([C@H](O)[C@H](O)CO)OC(C(=O)O)=C[C@@H]1N=C(N)N [Zanamivir, zanamivir]",susceptibility in words,[2],mildly reduced sensitivity
same,susceptibility in words,[4],significantly reduced susceptibility
same,susceptibility in words,[12],mild outlier
